Test results from patent US20160195533A1, “METHOD FOR SCREENING EMT INHIBITOR” (Medicinal Bioconvergence Research Center, priority 2015, published 2016).

Columns and labels:
[1] = tested on: binding between EPRS and Snail1; test: Endogenous immunoprecipitation of EPRS with Snail1 immunoblot in TGF-β1-treated cells; type: cell-based; conditions: A549 cells, TGF-β1 0, 1, 10, 20 ng/ml for 48 hours, cytoplasm and nucleus fractions
Experimental: For the detection of endogenous EPRS interaction with Snail1 in nucleus and cytosol, the protein extracts were incubated with protein A agarose (Life technologies) for 30 minutes on ice, and then centrifuged to remove nonspecific IgG binding proteins. The pre-cleared supernatants were mixed with anti-EPRS antibody, incubated the mixture for 2 h at 4° C. with gentle agitation, added protein A agarose for 2 h, and centrifuged. After washing the precipitates with the cold lysis buffer 3-5 times, the precipitates were dissolved in the 2×SDS sample buffer and separated by SDS-PAGE.
The interaction between EPRS and Snail1 were verified at the endogenous level of cytoplasm and nucleus. A549 cells were treated with TGF-β1 of different concentrations (0, 1, 10, 20 ng/ml) for 48 hours, fractionated into the cytoplasm and the nucleus, and then subjected endo-IP using protein A-agarose beads (Invitrogen) and EPRS antibody.

A549 cells [2] = test: Cell migration assay (Transwell) after EPRS knock-down; type: cell-based; conditions: si-EPRS vs si-control, groups treated with and without TGF-β1 (10 ng/ml, 12 hours)
Experimental: Cell migration assays with A549 cells were performed in Transwell chambers ([…] pore, Costar). Fibronectin (10 μg/ml, BD Biosciences) was coated on the membrane and 700 μl serum-free RPMI was placed in the bottom chamber. After A549 cells were trypsinized and centrifuged at 1,000 rpm for 5 minutes, serum-free RPMI was added to the cells for suspension. Then, 1×10^5 cells were dropped into 24-well Transwell chambers and incubated for 12 h at 37° C. in a CO2 incubator. After washing the membrane twice with PBS, 70% methyl alcohol in PBS was used for cell fixation. PBS washing was performed three times afterwards and hematoxylin (Sigma) was used for cell staining After washing the membrane with distilled water several times, non-migrant cells from the top were removed by using cotton swab. Then, the membranes were mounted with Gel Mount (Biomeda). For counting migrant cells, three randomly picked places were magnified with microscopes in high-power fields (×10, and ×20). All samples were performed in triplicate.
Here, the TGF-β1 treatment groups were treated at a concentration of 10 ng/ml for 12 hours.

A549 cells [3] = test: Cell invasion assay (Matrigel invasion chamber) after EPRS knock-down; type: cell-based; conditions: si-EPRS vs si-control, groups treated with and without TGF-β1 (10 ng/ml, 12 hours)
Experimental: Cell invasion assay using A549 cells were conducted in the Matrigel invasion chamber manufactured by BD Co. According to the manufacturer's protocol, the matrigel was rehydrated for two hours and 750 μl of the serum-free RPMI was located in a lower chamber. The A549 cells were trypsinized, and then centrifuged at 1,000 rpm for 5 minutes. The serum-free RPMI was added to the cells to prepare a suspension. Then, 1×10^5 cells were put in the upper chamber, and then incubated in a CO2 incubator at 37° C. for 12 hours. The membrane was washed two times with PBS, and the cells were fixed using PBS containing 70% methyl alcohol. Then, the membrane was washed three times with PBS, and then the cells were stained with hematoxylin (Sigma). The membrane was washed several times with distilled water, and then immobilized cells above were removed using cotton swabs. Then, the membrane was mounted on the Gel Mount (Biomeda). For counting moving cells, three randomly selected regions were magnified through the microscope. All samples were repeatedly tested three times.
Here, the groups treated with TGF-β1 were prepared by treatment at a concentration of 10 ng/ml for 12 hours.

EPRS (A549 cells) = test: Immunoblotting of Snail1 and EMT-related markers after EPRS knock-down using siRNA; type: cell-based, human; conditions: si-EPRS vs si-control, with or without 10 ng/ml TGF-β1 for 1 hour or 48 hours, cytoplasm and nucleus
Experimental: Human EPRS gene specific siRNA (si-EPRS) including a sense strand of SEQ ID NO: 23 and an antisense strand of SEQ ID NO: 24, and non-silencing control siRNA (si-control, Catalog Number: 4390843) were purchased from Invitrogen Silencer Select siRNAs products.
Cells were lysed with lysis buffer (20 mM Tris-HCl (pH 8.0) buffer containing 150 mM NaCl, 1% Triton X-100, 1 mM EDTA, 10% glycerol, and protease inhibitor) and collected in a 1.5 ml tube and incubated in 4° C. with gentle agitation for 15 minutes. Then, centrifuged at 15,000 rpm for 20 minutes in 4° C. and supernatants were collected and quantified by using Bradford reagent. After 5×SDS sample buffer was added, each sample were boiled in 100° C. for 5 minutes. Protein samples were separated by SDS-PAGE, transferred to nitrocellulose membrane, and immunoblotted with specific antibodies. The blots were then reacted with horseradish peroxidase-coupled anti-mouse and anti-rabbit (Pierce) IgG secondary antibody. Signals were developed with ECL-PLUS detection reagent (GE healthcare lifesciences).
The antibodies specific to the respective marker proteins, used in the present experiment, are as follows: StrepMAB classic-HRP (IBA), Monoclonal anti-FLAG M2-HRP (Sigma), anti-Snail1 (Cell signaling), anti-Slug (Cell signaling), anti-L13a (Cell signaling), anti-p-Smad2 (Cell signaling), anti-p-Smad3 (Cell signaling), anti-E-cadherin (Cell signaling), anti-N-cadherin (Cell signaling), anti-HDAC1 (Bio vision), anti-β-actin (SCBT), anti-Tubulin (Sigma), anti-HSP90 alpha/β (SCBT), anti-p84 (SCBT), and anti-HA (SCBT). The anti-EPRS antibody was prepared through a conventional procedure by which the EPRS protein represented by SEQ ID NO: 1 was injected into a New Zealand white rabbit to cause an immune response, thereby obtaining an antibody.
It was verified how the reduced EPRS affects Snail1 and EMT progress, through EPRS knock-down experiment using siRNA. For each experimental group, […] cells were treated with si-control or si-EPRS, and treated with or without 10 ng/ml of TGF-β1 for 1 hour or 48 hours. […]

Row | Substance | binding between EPRS and Snail1 (endo-IP, Snail1 immunoblot) [1] | cell migration (A549 cells [2]) | cell invasion (A549 cells [3]) | E-cadherin protein level (immunoblot) (EPRS (A549 cells)) | Snail1 protein level (immunoblot) (EPRS (A549 cells)) | p-SMAD3 protein level (immunoblot) (EPRS (A549 cells))
1 | TGF-β1: Growth factor purchased from R&D systems, used to induce EMT | the higher the concentration of TGF-β1, the stronger the binding between EPRS and Snail1 | – | – | – | – | –
2 | si-EPRS: Human EPRS gene specific siRNA including a sense strand of SEQ ID NO: 23 and an antisense strand of SEQ ID NO: 24 (sense CGAUGUCAGCAUUUCCGUUTT; antisense AACGGAAAUGCUGACAUCGTC; chemistry not given here) | – | reduced | reduced | increased | reduced | reduced
